In patent US20250101023A1, “HETEROARYL DERIVATIVE AND USES THEREOF” (IUCF-HYU (INDUSTRY-UNIVERSITY COOPERATION FOUNDATION …, priority 2022, published 2025):

Tests used:
[1] = Body weight in SK-Br3 xenograft model; type: in vivo, mouse; conditions: 20 mg/kg, i.p. twice a week
Experimental: A mouse efficacy experiment was conducted after obtaining approval from the Laboratory Animal Ethics Committee of GenNBio (Review No.: GN-IACUC-Research 22-02-07). SK-Br3 and HCC-1954 cells (1×10^6 cells each) mixed with Matrigel (BD Biosciences) were […] injected into 5-week-old female Balb/c nude mice (Orient Bio, Seongnam, Republic of Korea). After tumors reached a size of about 100 mm^3, the compound, trastuzumab (20 mg/kg), and the like were intraperitoneally injected into mice (n=8 per group)(vehicle: 8% DMSO, 4% Tween-80, 88% PBS). The tumor size was measured twice weekly for about 4 weeks and calculated as follows. Volume (mm^3)=(a×b^2)/2; “a”, maximum diameter; “b”, vertical diameter

[2] = tested on: SK-Br3 cells; assay: Breast cancer growth inhibitory activity (Cell-titer Glo, 72 h); type: cell-based; conditions: Homo sapiens, SK-BR-3; read-out: SK-Br3 GI50
Experimental: (§1) Breast cancer cells in a culture solution (100 μL volume/well, 2,500 SK-Br3 cells/well, 1,000 HCC-1954 cells/well) were seeded into a tissue culture-treated 96-well plate and cultured in a cell incubator for 24 hours. […] Cell-titer Glo™ reagent (50 μL of a 5-fold diluted solution, Promega) was added to each well, and luminescence signals were measured using an Envision™ plate reader (PerkinElmer, USA). Titration curve fitting and IC50 values were generated using Prism 7.0 s/w (GraphPad, San Diego, USA).

[3] = tested on: HCC1954 cells; assay: as above; type: cell-based; conditions: Homo sapiens, read-out: HCC1954 GI50
Experimental: as §1

For `CCc1cnn2c(NCc3ccc[n+]([O-])c3)cc(N3CCCC[C@H]3CCO)nc12` [Dinaciclib, reference compound], which mouse body weight [1] is on record?
The mouse body weight was “toxicity with a decrease in body weight in mice”.

And the GI50 [2]?
Its GI50 is 12 nM.

What about the GI50 [3] of the same molecule?
The GI50 was 12 nM.
